Results: patent US20260062426A1, “CYCLIN DEPENDENT KINASE DEGRADERS AND METHODS OF USE THEREOF” (Differentiated Therapeutics Inc, priority 2023, published 2026)

Assays:
Format in all cases: cell-based
CDK9 = molecular target: T1, CDK9 (Homo sapiens, UniProt P50750); experiment: CDK9 HIBIT PQ (protein quantification), degradation; conditions: for Dmax: Max = Maximum; for DC50: PQ = Protein Quantification
T1 construct: host or cells: HEK293
Outline: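 Maximal degradation, Dmax and DC50 come from HiBiT assay readings of CDK9 protein in compound-treated HEK293 cells that express HiBiT-tagged CDK9. The cells were grown in DMEM with 10% FBS and seeded at 1.6×10^5 cells/well in 50 uL in 384-well plates before overnight incubation at 37° C and 5% CO2. Cells treated with 0.1% DMSO set the high control, and medium only set the low control.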

CDK2 = molecular target: T2, CDK2 (Homo sapiens, UniProt P24941); experiment: CDK2 HIBIT PQ (protein quantification), degradation; conditions: for CDK2 HIBIT PQ Max (%): Max = Maximum; for DC50: PQ = Protein Quantification
T2 construct: host or cells: HEK293
Outline: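 Maximal degradation and DC50 were obtained from luminescence readings of HEK293 cells expressing HiBiT-tagged CDK2. The cells, grown in DMEM with 10% FBS, were seeded at 1.6×10^5 cells/well in 50 uL in 384-well plates and incubated overnight at 37° C and 5% CO2 before 6 hours of compound treatment. HiBiT reagent (Nano-Glo HiBiT lytic buffer, lytic substrate, LgBiT protein) was then added at 20 μL, and plates were shaken for 20 minutes at room temperature before reading on an EnVision, against a high control of 0.1% DMSO and a low control of medium only.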

CCNE1 = molecular target: T3, CCNE1 (Homo sapiens, UniProt P24864+P24941); experiment: CCNE1 HIBIT PQ (protein quantification), degradation; conditions: for CCNE1 HIBIT PQ Max (%): Max = Maximum; for DC50: PQ = Protein Quantification
T3 construct: host or cells: HEK293
Outline: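 HEK293 cells with HiBiT-tagged CCNE1 were cultured in EMEM containing 10% FBS, plated at 1.6×10⁵ cells/well in 50 uL in 384-well plates and left overnight at 37° C with 5% CO₂. After 6 hours of compound exposure, a HiBiT assay measured CCNE1 protein, with 0.1% DMSO-treated cells as the high control and medium alone as the low control. DC50 and maximal degradation came from these readings.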

T1 sequence (P50750 whole entry): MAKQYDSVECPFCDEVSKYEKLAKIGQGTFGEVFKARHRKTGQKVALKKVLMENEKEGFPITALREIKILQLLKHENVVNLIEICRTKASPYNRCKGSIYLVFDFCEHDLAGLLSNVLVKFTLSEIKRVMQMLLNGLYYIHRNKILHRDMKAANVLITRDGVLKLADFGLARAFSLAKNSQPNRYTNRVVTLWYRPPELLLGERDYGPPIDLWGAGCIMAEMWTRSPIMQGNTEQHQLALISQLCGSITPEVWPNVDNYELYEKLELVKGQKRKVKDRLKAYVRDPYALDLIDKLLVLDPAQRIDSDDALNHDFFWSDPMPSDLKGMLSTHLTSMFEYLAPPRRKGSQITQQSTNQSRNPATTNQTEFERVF

| SMILES | Dmax (CDK9) [%] | DC50 (CDK9) [nM] | CDK2 HIBIT PQ Max (%) (CDK2) | DC50 (CDK2) [nM] | CCNE1 HIBIT PQ Max (%) (CCNE1) | DC50 (CCNE1) [nM] |
| --- | --- | --- | --- | --- | --- | --- |
| CC(C)Oc1c(-c2cn[nH]c2)ncn2nc(Nc3ccc(S(=O)(=O)c4cccc(CN5CCN(c6ccc7c(N8CCC(=O)NC8=O)nn(C)c7c6)CC5C)c4)cc3F)nc12 (racemic) [Compound 39] | 60 | 58.5 | 96 | 3.3 | 67 | 14.9 |
| CC(C)Oc1c(-c2cn[nH]c2)ncn2nc(Nc3ccc(S(=O)(=O)c4cccc(CN5CCN(c6ccc7c(N8CCC(=O)NC8=O)nn(C)c7c6)C(C)C5)c4)cc3F)nc12 (racemic) [Compound 41] | 57 | 28 | 94 | 3.9 | 41 | – |
| CC(C)Oc1c(-c2cn[nH]c2)ncn2nc(Nc3ccc(S(=O)(=O)c4cccc(CN5CCN(c6ccc7c(N8CCC(=O)NC8=O)nn(C)c7c6)CC5C(C)C)c4)cc3F)nc12 (racemic) [Compound 42, rac-(R)-1-(6-(4-(3-((3-fluoro-4-((8-isopropoxy-7-(1H-pyrazol-4-yl)-[1,2,4]triazolo[1,5-c]pyrimidin-2-yl)amino)phenyl)sulfonyl)benzyl)-3-isopropylpiperazin-1-yl)-1-methyl-1H-indazol-3-yl)dihydropyrimidine-2,4(1H,3H)-dione] | 61 | 306 | 95 | 14.9 | 67 | 78.9 |
| CC(C)Oc1c(-c2cn[nH]c2)ncn2nc(Nc3ccc(S(=O)(=O)c4cccc(CN5CCN(c6ccc7c(N8CCC(=O)NC8=O)nn(C)c7c6)C(C(C)C)C5)c4)cc3F)nc12 (racemic) [Compound 43, rac-1-{6-[(2R)-4-{[3-(3-fluoro-4-{[8-isopropoxy-7-(1H-pyrazol-4-yl)-[1,2, 4]triazolo[1,5-c]pyrimidin-2-yl]amino}benzenesulfonyl)phenyl]methyl}-2-isopropylpiperazin-1-yl]-1-methylindazol-3-yl}-1,3-diazinane-2,4-dione] | 75 | 307 | 94 | 14.5 | 76 | 96.5 |
| CC(C)Oc1c(-c2cn[nH]c2)ncn2nc(Nc3ccc(S(=O)(=O)N(C)CCCN4CCC(c5ccc6c(c5)n(C)c(=O)n6C5CCC(=O)NC5=O)CC4)c4ccoc34)nc12 (racemic) [Compound 53] | 67 | 2.64 | 87 | 0.2 | 61 | 0.74 |
| CC(C)Oc1c(-c2cn[nH]c2)ncn2nc(Nc3ccc(S(=O)(=O)N(C)CCCN4CCC(c5ccc6c(c5)n(C)c(=O)n6C5CCC(=O)NC5=O)CC4)cc3)nc12 (racemic) [Compound 54] | 74 | 1.57 | 89 | 0.1 | 82 | 0.59 |
| Cc1c(S(=O)(=O)N(C)CCCN2CCC(c3ccc4c(c3)n(C)c(=O)n4C3CCC(=O)NC3=O)CC2)ccc(Nc2nc3c(OC(C)C)c(-c4cn[nH]c4)ncn3n2)c1F (racemic) [Compound 55, rac-(R)-N-(3-(4-(1-(2,6-dioxopiperidin-3-yl)-3-methyl-2-oxo-2,3-dihydro-1H-benzo[d]imidazol-5-yl)piperidin-1-yl)propyl)-3-fluoro-4-((8-isopropoxy-7-(1H-pyrazol-4-yl)-[1,2,4]triazolo[1,5-c]pyrimidin-2-yl)amino)-N,2-dimethylbenzenesulfonamide] | 83 | 1.13 | 91 | 0.1 | 76 | 0.51 |
| CC(C)Oc1c(-c2cn[nH]c2)ncn2nc(Nc3ccc(S(=O)(=O)N(C)CCCN4CCC(c5ccc6c(c5)n(C)c(=O)n6C5CCC(=O)NC5=O)CC4)c(F)c3F)nc12 (racemic) [Compound 56] | 90 | 0.48 | 93 | – | 82 | 0.23 |
